Consider 13 compounds from PMC3835334 (ACS medicinal chemistry letters, 2013).

For the first data set, the system named is JMAR, MDA-MB-231, SKMEL-28, DRO81-1 and MRC-5 cells.
Assay: not given
Conditions: not given
Regarding `CC1=C(CO)C(=O)O[C@@H]([C@@H](C)[C@H]2CC[C@H]3[C@@H]4C[C@H]5O[C@]56[C@@H](OC(=O)c5ccc(Cl)cc5)C=CC(=O)[C@]6(CO)[C@H]4CC[C@]23C)C1` [Compound 10], the “Cytotoxic activity in words” value is listed as “active”.
Take `CC1=C(COC(=O)c2ccc(Cl)cc2)C(=O)O[C@@H]([C@@H](C)[C@H]2CC[C@H]3[C@@H]4C[C@H]5O[C@]56[C@@H](O)C=CC(=O)[C@]6(COC(=O)c5ccc(Cl)cc5)[C@H]4CC[C@]23C)C1` [Compound 11]: the “Cytotoxic activity in words” value is recorded as “active”.
As to `CC(=O)OCC1=C(C)C[C@H]([C@@H](C)[C@H]2CC[C@H]3[C@@H]4C[C@H]5O[C@]56[C@@H](OC(=O)N(C)C)C=CC(=O)[C@]6(COC(C)=O)[C@H]4CC[C@]23C)OC1=O` [Compound 15], the “Increased cytotoxicity compared to 1” value is on record as 3–5 times.
On to `CC(=O)OCC1=C(C)C[C@H]([C@@H](C)[C@H]2CC[C@H]3[C@@H]4C[C@H]5O[C@]56CC=CC(=O)[C@]6(COC(C)=O)[C@H]4CC[C@]23C)OC1=O` [Compound 17, Jaborosalactone V diacetate], for which the “Cytotoxic activity in words” value is given as “equipotent to withaferin A”.
On to `CC(=O)OCC1=C(C)C[C@H]([C@@H](C)[C@H]2CC[C@H]3[C@@H]4C[C@@H](O)C5=CC=CC(=O)[C@]5(COC(C)=O)[C@H]4CC[C@]23C)OC1=O` [Compound 18], for which the “Cytotoxic activity in words” value is listed as “abolished”.
The same measure, in the same setting: as for `CC1=C(CO)C(=O)O[C@@H]([C@@H](C)[C@H]2CC[C@H]3[C@@H]4C[C@H]5O[C@]56[C@@H](O)C=C(I)C(=O)[C@]6(CO)[C@H]4CC[C@]23C)C1` [Compound 21], the entry is “very weak activity”.

The test system is the same in the next data set. In words: cells. The settings on record: read-out: IC50 values against melanoma and carcinoma cells.
For the compound `CC(=O)OCC1=C(C)C[C@H]([C@@H](C)[C@H]2CC[C@H]3[C@@H]4C[C@@H](O)[C@@]5(Cl)CC=CC(=O)[C@]5(COC(C)=O)[C@H]4CC[C@]23C)OC1=O` [Compound 19], the IC50 fell in the range of 0.8 to 2.16 µM.

Still in this data set, the particulars now being: read-out: IC50 values over all cell lines tested.
`CCC(=O)OCC1=C(C)C[C@H]([C@@H](C)[C@H]2CC[C@H]3[C@@H]4C[C@H]5O[C@]56[C@@H](OC(=O)CC)C=CC(=O)[C@]6(COC(=O)CC)[C@H]4CC[C@]23C)OC1=O` [Compound 9, withalongolide A 4,19,27-propionate]: the IC50 lay in the range of 0.13 to 1 µM.
As to `CC1=C(COC(=O)c2ccc(Cl)cc2)C(=O)O[C@@H]([C@@H](C)[C@H]2CC[C@H]3[C@@H]4C[C@H]5O[C@]56[C@@H](OC(=O)c5ccc(Cl)cc5)C=CC(=O)[C@]6(CO)[C@H]4CC[C@]23C)C1` [Compound 12], the IC50 is greater than 10 µM.
For `CC1=C(COC(=O)c2ccc(Cl)cc2)C(=O)O[C@@H]([C@@H](C)[C@H]2CC[C@H]3[C@@H]4C[C@H]5O[C@]56[C@@H](OC(=O)c5ccc(Cl)cc5)C=CC(=O)[C@]6(COC(=O)c5ccc(Cl)cc5)[C@H]4CC[C@]23C)C1` [Compound 13], the half-inhibitory concentration (IC50) is greater than 10 µM.
For the compound `CC(=O)OC[C@]12C(=O)C=C[C@H](OC(=O)c3ccc(Cl)cc3)[C@]13O[C@@H]3C[C@H]1[C@@H]3CC[C@H]([C@H](C)[C@H]4CC(C)=C(COC(=O)c5ccc(Cl)cc5)C(=O)O4)[C@@]3(C)CC[C@@H]12` [Compound 16], the IC50 was greater than 10 µM.
Regarding `CC(=O)OCC1=C(C)C[C@H]([C@@H](C)[C@H]2CC[C@H]3[C@@H]4C[C@@H](O)C5=CC=CC(=O)[C@]5(COC(C)=O)[C@H]4CC[C@]23C)OC1=O` [Compound 18], the IC50 is greater than 10 µM.
For `CC(=O)OCC1=C(C)C[C@H]([C@@H](C)[C@H]2CC[C@H]3[C@@H]4C[C@@H](OC(C)=O)C5=CC=CC(=O)[C@]5(COC(C)=O)[C@H]4CC[C@]23C)OC1=O` [Compound 20], the 50% inhibitory concentration (IC50) was greater than 10 µM.
As for `CC(=O)OCC1=C(C)C[C@H]([C@@H](C)[C@H]2CC[C@H]3[C@@H]4C[C@H]5O[C@]56[C@@H]5C=CC(=O)[C@]6(COC(=O)CC/C=C/CCC(=O)O5)[C@H]4CC[C@]23C)OC1=O` [Compound 24], the IC50 lay within 0.205 to 0.965 µM.
